How the values were obtained:
Experiment in all cases: relative viability (nuclei count vs DMSO), 5 days (fraction); higher = more cells survive
IU1-47 + Decitabine = compound: CC1=CC(=C(N1C2=CC=C(C=C2)Cl)C)C(=O)CN3CCCCC3 [IU1-47] + Nc1ncn([C@H]2C[C@H](O)[C@@H](CO)O2)c(=O)n1 [Decitabine] (partner 2 µM)
Summary of the method: (§1)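 Medians of duplicate plates are given as relative viability. That measure is the nuclei count in treated wells divided by the count in vehicle wells. Counts were taken on 4× images of lung cancer cell lines in 1536-well plates, 5 days after pin-tool dosing the day after seeding with one drug alone or a fixed anchor-drug dose plus five library-drug doses (not always all listed) in √10 steps.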

IU1-47 + Trametinib = compound: CC1=CC(=C(N1C2=CC=C(C=C2)Cl)C)C(=O)CN3CCCCC3 [IU1-47] + CC(=O)Nc1cccc(-n2c(=O)n(C3CC3)c(=O)c3c(Nc4ccc(I)cc4F)n(C)c(=O)c(C)c32)c1 [Trametinib] (partner 0.02 µM)
Summary of the method: as §1

IU1-47 + Phenformin = compound: CC1=CC(=C(N1C2=CC=C(C=C2)Cl)C)C(=O)CN3CCCCC3 [IU1-47] + N=C(N)NC(=N)NCCc1ccccc1 [Phenformin] (partner 250 µM)
Summary of the method: as §1

FG-4592 + Navitoclax = compound: Cc1nc(C(=O)NCC(=O)O)c(O)c2ccc(Oc3ccccc3)cc12 [FG-4592] + CC1(C)CCC(c2ccc(Cl)cc2)=C(CN2CCN(c3ccc(C(=O)NS(=O)(=O)c4ccc(N[C@H](CCN5CCOCC5)CSc5ccccc5)c(S(=O)(=O)C(F)(F)F)c4)cc3)CC2)C1 [Navitoclax] (partner 0.5 µM)
Summary of the method: as §1

| Cell Line | relative viability (IU1-47 + Decitabine; first compound 0.08 µM) | relative viability (IU1-47 + Decitabine; first compound 0.253 µM) | relative viability (IU1-47 + Decitabine; first compound 0.8 µM) | relative viability (IU1-47 + Decitabine; first compound 8 µM) | relative viability (IU1-47 + Trametinib; first compound 0.08 µM) | relative viability (IU1-47 + Trametinib; first compound 0.253 µM) | relative viability (IU1-47 + Trametinib; first compound 0.8 µM) | relative viability (IU1-47 + Trametinib; first compound 8 µM) | relative viability (IU1-47 + Phenformin; first compound 0.08 µM) | relative viability (IU1-47 + Phenformin; first compound 0.253 µM) | relative viability (IU1-47 + Phenformin; first compound 0.8 µM) | relative viability (IU1-47 + Phenformin; first compound 2.53 µM) | relative viability (IU1-47 + Phenformin; first compound 8 µM) | relative viability (FG-4592 + Navitoclax; first compound 0.08 µM) | relative viability (FG-4592 + Navitoclax; first compound 0.253 µM) | relative viability (FG-4592 + Navitoclax; first compound 0.8 µM) | relative viability (FG-4592 + Navitoclax; first compound 2.53 µM) | relative viability (FG-4592 + Navitoclax; first compound 8 µM) | relative viability (IU1-47 + Decitabine; first compound 2.53 µM) | relative viability (IU1-47 + Trametinib; first compound 2.53 µM) |
| --- | --- | --- | --- | --- | --- | --- | --- | --- | --- | --- | --- | --- | --- | --- | --- | --- | --- | --- | --- | --- |
| H3255 | 0.696 | 0.681 | 0.689 | 0.453 | 0.636 | 0.643 | 0.7 | 0.587 | 0.426 | 0.358 | 0.294 | 0.365 | 0.352 | 0.554 | 0.387 | 0.523 | 0.596 | 0.6 |  |  |
| NCI-H647 | 0.454 | 0.487 | 0.462 | 0.4 | 0.459 | 0.432 | 0.489 | 0.443 | 0.449 | 0.597 |  | 0.553 | 0.238 | 1.16 | 1.04 | 1.04 | 0.961 | 1.12 | 0.39 | 0.405 |
| NCI-H2023 | 0.182 | 0.212 | 0.215 | 0.225 | 0.563 | 0.636 | 0.607 | 0.557 | 0.459 | 0.387 | 0.411 | 0.472 | 0.378 | 0.991 | 1 | 1.12 | 0.94 | 0.829 | 0.248 | 0.608 |
| NCI-H23 | 0.347 |  | 0.312 | 0.302 | 0.5 |  | 0.305 | 0.38 | 0.757 | 0.884 | 0.904 | 0.678 | 0.828 | 0.832 | 0.786 | 0.809 | 0.744 | 0.708 | 0.319 | 0.35 |
| NCI-H1944 | 0.446 | 0.474 | 0.419 | 0.388 | 0.453 | 0.473 | 0.414 | 0.415 | 0.2 | 0.192 | 0.199 | 0.216 | 0.168 | 1.07 | 1.03 | 0.962 | 1.03 | 0.907 | 0.426 | 0.386 |
| NCI-H1793 | 0.53 |  | 0.538 | 0.426 | 0.42 |  | 0.554 | 0.416 | 0.419 | 0.259 | 0.475 |  | 0.352 | 0.335 | 0.384 |  | 0.291 | 0.238 | 0.507 | 0.513 |
| NCI-H520 | 0.484 | 0.507 | 0.469 | 0.416 | 0.661 | 0.671 | 0.821 | 0.633 | 0.602 | 0.484 | 0.59 | 0.626 | 0.346 | 1.03 | 1.05 | 1.05 | 1.07 | 0.879 | 0.513 | 0.456 |
| NCI-H460 | 0.536 | 0.494 | 0.563 | 0.579 | 0.134 | 0.127 | 0.2 | 0.18 | 0.599 | 0.536 | 0.614 | 0.532 | 0.313 | 1.15 | 1.08 | 1.25 | 0.963 | 0.979 | 0.51 | 0.129 |
| EKVX | 0.376 | 0.339 | 0.364 | 0.352 | 0.369 | 0.374 | 0.375 | 0.296 | 0.24 | 0.262 | 0.263 | 0.259 | 0.252 | 0.848 | 0.813 | 0.855 | 1.09 | 1.04 |  |  |
| EPLC-272H | 0.362 | 0.38 | 0.4 | 0.34 | 0.259 | 0.28 | 0.264 | 0.258 | 0.294 | 0.298 | 0.23 |  | 0.243 | 1.15 | 1.09 | 0.775 | 1.05 | 1.08 |  |  |
| NCI-H1395 | 0.687 | 0.802 | 0.699 | 0.713 | 1.16 | 1.13 | 1.06 | 0.803 | 0.408 | 0.456 | 0.472 | 0.436 | 0.374 | 1.37 | 1.01 |  | 1.02 | 0.958 | 0.704 | 0.914 |
| NCI-H2126 | 0.564 | 0.584 | 0.599 | 0.583 | 0.642 | 0.595 | 0.592 | 0.534 | 0.535 | 0.515 | 0.508 |  | 0.529 | 0.825 | 0.773 | 0.817 | 0.875 | 0.807 | 0.544 | 0.498 |
| LXF-289 | 0.377 | 0.367 | 0.397 | 0.346 | 0.689 | 0.726 | 0.645 | 0.668 | 0.533 | 0.563 | 0.541 | 0.517 | 0.439 | 0.956 | 0.914 | 1.02 | 0.936 | 0.953 | 0.367 | 0.68 |
| NCI-H2009 | 0.36 | 0.448 | 0.366 | 0.406 | 0.257 | 0.3 | 0.254 | 0.25 | 0.519 | 0.501 | 0.5 | 0.486 | 0.412 | 1.2 | 1.18 | 1.21 | 1.05 | 1.22 | 0.382 | 0.274 |
| NCI-H2405 | 0.839 | 0.762 | 0.769 | 0.765 | 0.69 | 0.702 | 0.762 | 0.622 | 0.404 | 0.415 | 0.386 | 0.371 | 0.365 |  | 0.437 | 0.874 | 0.731 | 0.711 | 0.779 | 0.672 |
| NCI-H1755 | 0.712 | 0.694 | 0.653 | 0.766 | 0.794 | 0.756 | 0.891 | 0.794 | 0.684 | 0.665 | 0.698 | 0.613 | 0.662 | 0.989 | 0.977 | 0.937 | 0.997 | 1.01 | 0.797 | 0.812 |
| HCC-78 | 0.643 | 0.682 | 0.71 | 0.723 | 0.929 | 0.812 | 0.814 | 0.939 | 0.679 | 0.691 | 0.671 | 0.671 | 0.617 | 0.904 | 0.766 | 0.442 | 0.773 | 0.806 | 0.668 | 0.515 |

Source: the supplement of paper PMC10307832
